Legend:
Assay in all cases: relative viability (nuclei count vs DMSO), 5 days (fraction); higher = more cells survive
[1] = test system: A-427
Method in brief: (§1)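 Medians of duplicate plates are given as relative viability. That measure is the nuclei count in treated wells divided by the count in vehicle wells. Counts were taken on 4× images of lung cancer cell lines in 1536-well plates, 5 days after pin-tool dosing the day after seeding with one drug alone or a fixed anchor-drug dose plus five library-drug doses (not always all listed) in √10 steps.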

[2] = test system: COR-L 105
Method in brief: as §1

[3] = test system: ChaGo-K-1
Method in brief: as §1

[4] = test system: EKVX
Method in brief: as §1

[5] = test system: EMC-BAC-2
Method in brief: as §1

[6] = test system: EPLC-272H
Method in brief: as §1

[7] = test system: HARA
Method in brief: as §1

[8] = test system: HCC-44
Method in brief: as §1

[9] = test system: LK-2
Method in brief: as §1

[10] = test system: LU99A
Method in brief: as §1

[11] = test system: NCI-H1650
Method in brief: as §1

[12] = test system: NCI-H1734
Method in brief: as §1

[13] = test system: NCI-H1755
Method in brief: as §1

[14] = test system: NCI-H1792
Method in brief: as §1

[15] = test system: NCI-H1993
Method in brief: as §1

[16] = test system: NCI-H2405
Method in brief: as §1

[17] = test system: NCI-H358
Method in brief: as §1

[18] = test system: NCI-H460
Method in brief: as §1

[19] = test system: NCI-H596
Method in brief: as §1

[20] = test system: NCI-H647
Method in brief: as §1

[21] = test system: RERF-LC-KJ
Method in brief: as §1

Cc1csc(=NC2CCCCC2)n1/N=C/c1ccc(O)c(O)c1O [MIM1] + C[C@@H](Oc1cc(-c2cnn(C3CCNCC3)c2)cnc1N)c1c(Cl)ccc(F)c1Cl [Crizotinib] (partner 1 µM)
relative viability ([1]; first compound 0.2 µM): 0.881 | relative viability ([1]; first compound 0.6325 µM): 0.731 | relative viability ([1]; first compound 2 µM): 0.862 | relative viability ([1]; first compound 6.325 µM): 0.713 | relative viability ([1]; first compound 20 µM): 0.214 | relative viability ([2]; first compound 0.2 µM): 0.893 | relative viability ([2]; first compound 0.6325 µM): 0.811 | relative viability ([2]; first compound 2 µM): 0.612 | relative viability ([2]; first compound 6.325 µM): 0.724 | relative viability ([2]; first compound 20 µM): 0.759 | relative viability ([3]; first compound 0.2 µM): 1.07 | relative viability ([3]; first compound 0.6325 µM): 1.13 | relative viability ([3]; first compound 2 µM): 0.953 | relative viability ([3]; first compound 6.325 µM): 0.835 | relative viability ([3]; first compound 20 µM): 0.285 | relative viability ([4]; first compound 0.2 µM): 0.989 | relative viability ([4]; first compound 0.6325 µM): 0.887 | relative viability ([4]; first compound 2 µM): 0.788 | relative viability ([4]; first compound 6.325 µM): 0.527 | relative viability ([4]; first compound 20 µM): 0.757 | relative viability ([5]; first compound 0.2 µM): 0.708 | relative viability ([5]; first compound 0.6325 µM): 0.774 | relative viability ([5]; first compound 2 µM): 0.784 | relative viability ([5]; first compound 6.325 µM): 0.628 | relative viability ([5]; first compound 20 µM): 0.196 | relative viability ([6]; first compound 0.2 µM): 0.911 | relative viability ([6]; first compound 0.6325 µM): 0.925 | relative viability ([6]; first compound 2 µM): 0.901 | relative viability ([6]; first compound 6.325 µM): 0.666 | relative viability ([6]; first compound 20 µM): 0.278 | relative viability ([7]; first compound 0.2 µM): 1.06 | relative viability ([7]; first compound 0.6325 µM): 1.13 | relative viability ([7]; first compound 2 µM): 1.08 | relative viability ([7]; first compound 6.325 µM): 0.997 | relative viability ([7]; first compound 20 µM): 0.138 | relative viability ([8]; first compound 0.2 µM): 0.766 | relative viability ([8]; first compound 0.6325 µM): 0.74 | relative viability ([8]; first compound 2 µM): 0.67 | relative viability ([8]; first compound 6.325 µM): 0.391 | relative viability ([8]; first compound 20 µM): 0.152 | relative viability ([9]; first compound 0.2 µM): 0.234 | relative viability ([9]; first compound 0.6325 µM): 0.233 | relative viability ([9]; first compound 6.325 µM): 0.227 | relative viability ([9]; first compound 20 µM): 0.229 | relative viability ([10]; first compound 0.2 µM): 0.56 | relative viability ([10]; first compound 0.6325 µM): 0.538 | relative viability ([10]; first compound 2 µM): 0.474 | relative viability ([10]; first compound 6.325 µM): 0.481 | relative viability ([10]; first compound 20 µM): 0.29 | relative viability ([11]; first compound 0.2 µM): 1.04 | relative viability ([11]; first compound 0.6325 µM): 0.931 | relative viability ([11]; first compound 2 µM): 0.495 | relative viability ([11]; first compound 6.325 µM): 0.47 | relative viability ([11]; first compound 20 µM): 0.156 | relative viability ([12]; first compound 0.2 µM): 0.657 | relative viability ([12]; first compound 0.6325 µM): 0.677 | relative viability ([12]; first compound 2 µM): 0.596 | relative viability ([12]; first compound 6.325 µM): 0.379 | relative viability ([12]; first compound 20 µM): 0.242 | relative viability ([13]; first compound 0.2 µM): 0.861 | relative viability ([13]; first compound 0.6325 µM): 0.794 | relative viability ([13]; first compound 2 µM): 0.803 | relative viability ([13]; first compound 6.325 µM): 0.68 | relative viability ([13]; first compound 20 µM): 0.179 | relative viability ([14]; first compound 0.2 µM): 0.935 | relative viability ([14]; first compound 0.6325 µM): 0.897 | relative viability ([14]; first compound 2 µM): 1.02 | relative viability ([14]; first compound 6.325 µM): 0.481 | relative viability ([14]; first compound 20 µM): 0.902 | relative viability ([15]; first compound 0.2 µM): 0.886 | relative viability ([15]; first compound 0.6325 µM): 0.805 | relative viability ([15]; first compound 2 µM): 0.827 | relative viability ([15]; first compound 6.325 µM): 0.608 | relative viability ([15]; first compound 20 µM): 0.594 | relative viability ([16]; first compound 0.2 µM): 0.883 | relative viability ([16]; first compound 0.6325 µM): 0.864 | relative viability ([16]; first compound 2 µM): 0.912 | relative viability ([16]; first compound 6.325 µM): 0.701 | relative viability ([16]; first compound 20 µM): 0.508 | relative viability ([17]; first compound 0.2 µM): 0.572 | relative viability ([17]; first compound 0.6325 µM): 0.459 | relative viability ([17]; first compound 2 µM): 0.545 | relative viability ([17]; first compound 6.325 µM): 0.225 | relative viability ([17]; first compound 20 µM): 0.295 | relative viability ([18]; first compound 0.2 µM): 0.853 | relative viability ([18]; first compound 0.6325 µM): 0.994 | relative viability ([18]; first compound 2 µM): 0.374 | relative viability ([18]; first compound 6.325 µM): 0.205 | relative viability ([18]; first compound 20 µM): 0.031 | relative viability ([19]; first compound 0.2 µM): 0.965 | relative viability ([19]; first compound 0.6325 µM): 1.11 | relative viability ([19]; first compound 2 µM): 0.832 | relative viability ([19]; first compound 6.325 µM): 0.921 | relative viability ([19]; first compound 20 µM): 0.741 | relative viability ([20]; first compound 0.2 µM): 1.05 | relative viability ([20]; first compound 0.6325 µM): 1.17 | relative viability ([20]; first compound 2 µM): 1.02 | relative viability ([20]; first compound 6.325 µM): 0.719 | relative viability ([20]; first compound 20 µM): 0.354 | relative viability ([21]; first compound 0.2 µM): 0.787 | relative viability ([21]; first compound 0.6325 µM): 0.836 | relative viability ([21]; first compound 2 µM): 0.708 | relative viability ([21]; first compound 6.325 µM): 0.499 | relative viability ([21]; first compound 20 µM): 0.267
